In ChEMBL document CHEMBL1201862, “PubChem BioAssay data set” (2004):
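How tested: cells in 96-well plates exposed to compound for 48 hours at five concentrations. Abbreviation: GI50, concentration required for 50% inhibition of growth.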 Activity calls are given as the source filed them. Cut-off read from the data, not from the text of the source: active = GI50 up to about 1.1 µM and inactive = higher.

How the values were obtained:
Assay in all cases: NCI tumour cell line growth inhibition, 48 h
[1] = test system: EKVX
[2] = test system: HCC 2998
[3] = test system: HCT-15
[4] = test system: HOP-62
[5] = test system: HOP-92
[6] = test system: IGROV-1
[7] = test system: M14
[8] = test system: MDA-MB-435
[9] = test system: NCI-H226
[10] = test system: NCI-H23
[11] = test system: NCI/ADR-RES
[12] = test system: OVCAR-4
[13] = test system: OVCAR-5
[14] = test system: OVCAR-8
[15] = test system: SF-268
[16] = test system: SNB-19
[17] = test system: TK-10
[18] = test system: HL-60
[19] = test system: LOX IMVI
[20] = test system: SK-MEL-2

| Compound | GI50 [1] | GI50 [2] | GI50 [3] | GI50 [4] | GI50 [5] | GI50 [6] | GI50 [7] | GI50 [8] | GI50 [9] | GI50 [10] | GI50 [11] | GI50 [12] | GI50 [13] | GI50 [14] | GI50 [15] | GI50 [16] | GI50 [17] | GI50 [18] | GI50 [19] | GI50 [20] |
| --- | --- | --- | --- | --- | --- | --- | --- | --- | --- | --- | --- | --- | --- | --- | --- | --- | --- | --- | --- | --- |
| CCn1c(=O)c2c3ccc(OC)cc3[nH]c2c2ccc(OC)cc21 | 57.8 µM (inactive) | 21.2 µM (inactive) | 41.2 µM | 37.5 µM (inactive) | > 100 µM (inactive) | > 100 µM (inactive) | 36.1 µM (inactive) | > 100 µM (inactive) | > 100 µM (inactive) | > 100 µM (inactive) | 32.9 µM (inactive) | 54.1 µM (inactive) | > 100 µM (inactive) | 73.3 µM (inactive) | 62.2 µM (inactive) | > 100 µM (inactive) | > 100 µM (inactive) | – | – | – |
| Cc1ccc(S(=O)(=O)N/N=C2/CCC3(O)CC2(C)CCC2[C@H]3CC2(C)C)cc1 (some centres not stated) | 31.7 µM (inactive) | – | 27.1 µM | 43 µM (inactive) | 29.2 µM (inactive) | 23.5 µM (inactive) | 43.4 µM (inactive) | 27.8 µM (inactive) | 27.2 µM (inactive) | 37.3 µM (inactive) | 28.2 µM (inactive) | 35.9 µM (inactive) | 29.4 µM (inactive) | 34.7 µM (inactive) | 68.1 µM (inactive) | 37.7 µM (inactive) | 34.3 µM (inactive) | 31.3 µM (inactive) | 11.2 µM (inactive) | 23.8 µM (inactive) |
| CC1(C)CC[C@]2(C)[C@@H](O)C[C@]3(C)C(=CC[C@@H]4[C@@]5(C)CC[C@H](O)C(C)(C)[C@@H]5CC[C@]43C)[C@@H]2C1 | 38.8 µM (inactive) | – | 81.1 µM | 37 µM (inactive) | 16.2 µM (inactive) | 35.9 µM (inactive) | 93.1 µM (inactive) | > 100 µM (inactive) | 35 µM (inactive) | 29.4 µM (inactive) | 40 µM (inactive) | 97.3 µM (inactive) | 97.3 µM (inactive) | 20.3 µM (inactive) | 46.3 µM (inactive) | 61.5 µM (inactive) | 27.9 µM (inactive) | > 100 µM (inactive) | 16.4 µM (inactive) | 26.4 µM (inactive) |
| Cc1ccc(Nc2nc(=O)c3c4ccccc4n(C(=O)OC(C)(C)C)c3s2)cc1 | 29.1 µM (inactive) | – | 22.3 µM | 27.9 µM (inactive) | 23.1 µM (inactive) | 21.9 µM (inactive) | 14.7 µM (inactive) | 4.9 µM (inactive) | – | 23.1 µM (inactive) | 10.6 µM (inactive) | 37.9 µM (inactive) | 19.7 µM (inactive) | 39.7 µM (inactive) | 20.6 µM (inactive) | 79.1 µM (inactive) | 37.8 µM (inactive) | 24.8 µM (inactive) | 18.7 µM (inactive) | 20.7 µM (inactive) |
| Cc1nc2ccc(F)cc2c2c1CCS2 | 26.2 µM (inactive) | 58.1 µM (inactive) | > 100 µM | 57.4 µM (inactive) | 94.6 µM (inactive) | > 100 µM (inactive) | – | 35.8 µM (inactive) | – | > 100 µM (inactive) | 95.1 µM (inactive) | > 100 µM (inactive) | – | 69.3 µM (inactive) | 40.6 µM (inactive) | 30.3 µM (inactive) | 54.5 µM (inactive) | 24 µM (inactive) | 51.3 µM (inactive) | – |
| CCOC(=O)c1nc2ccc(C(F)(F)F)cc2nc1Nc1cc(OC)c(OC)c(OC)c1 | > 100 µM (inactive) | > 100 µM (inactive) | > 100 µM | > 100 µM (inactive) | > 100 µM (inactive) | > 100 µM (inactive) | > 100 µM (inactive) | > 100 µM (inactive) | – | > 100 µM (inactive) | > 100 µM (inactive) | – | > 100 µM (inactive) | > 100 µM (inactive) | > 100 µM (inactive) | > 100 µM (inactive) | > 100 µM (inactive) | > 100 µM (inactive) | > 100 µM (inactive) | – |
| O=C(O)c1ccccc1/N=N/c1c(O)c(S(=O)(=O)O)cc2cc(S(=O)(=O)O)ccc12 | > 100 µM (inactive) | > 100 µM (inactive) | > 100 µM | > 100 µM (inactive) | > 100 µM (inactive) | > 100 µM (inactive) | > 100 µM (inactive) | > 100 µM (inactive) | > 100 µM (inactive) | > 100 µM (inactive) | > 100 µM (inactive) | > 100 µM (inactive) | > 100 µM (inactive) | > 100 µM (inactive) | > 100 µM (inactive) | > 100 µM (inactive) | > 100 µM (inactive) | > 100 µM (inactive) | – | > 100 µM (inactive) |
| O=C(O)CN1CCN2CCCCCN(CC1)CCN(CC(=O)O)CC2 | > 100 µM (inactive) | – | > 100 µM | > 100 µM (inactive) | > 100 µM (inactive) | > 100 µM (inactive) | > 100 µM (inactive) | > 100 µM (inactive) | > 100 µM (inactive) | – | 22.1 µM (inactive) | > 100 µM (inactive) | > 100 µM (inactive) | > 100 µM (inactive) | – | > 100 µM (inactive) | > 100 µM (inactive) | 5.26 µM (inactive) | > 100 µM (inactive) | > 100 µM (inactive) |
| O=C(O)C/C=C/CC(=O)O | > 100 µM (inactive) | > 100 µM (inactive) | > 100 µM | > 100 µM (inactive) | – | > 100 µM (inactive) | > 100 µM (inactive) | > 100 µM (inactive) | > 100 µM (inactive) | > 100 µM (inactive) | > 100 µM (inactive) | > 100 µM (inactive) | > 100 µM (inactive) | > 100 µM (inactive) | > 100 µM (inactive) | > 100 µM (inactive) | > 100 µM (inactive) | > 100 µM (inactive) | > 100 µM (inactive) | > 100 µM (inactive) |
| CCC1(CC)C(=O)NN(C(=O)c2ccc(Cl)cc2)C1=O | > 100 µM (inactive) | > 100 µM (inactive) | > 100 µM | > 100 µM (inactive) | – | > 100 µM (inactive) | > 100 µM (inactive) | > 100 µM (inactive) | > 100 µM (inactive) | > 100 µM (inactive) | > 100 µM (inactive) | > 100 µM (inactive) | > 100 µM (inactive) | > 100 µM (inactive) | > 100 µM (inactive) | > 100 µM (inactive) | > 100 µM (inactive) | > 100 µM (inactive) | > 100 µM (inactive) | > 100 µM (inactive) |
| NC(=S)NNCC(=O)CC(O)(C(F)(F)F)C(F)(F)Cl (configuration not stated) | > 100 µM (inactive) | – | > 100 µM | – | > 100 µM (inactive) | > 100 µM (inactive) | > 100 µM (inactive) | > 100 µM (inactive) | > 100 µM (inactive) | > 100 µM (inactive) | > 100 µM (inactive) | > 100 µM (inactive) | > 100 µM (inactive) | > 100 µM (inactive) | – | > 100 µM (inactive) | > 100 µM (inactive) | 97.3 µM (inactive) | > 100 µM (inactive) | > 100 µM (inactive) |
| COC(=O)C1(NC(=O)C(N)CC(=O)O)C(C)C1C (configuration not stated) | > 100 µM (inactive) | – | > 100 µM | > 100 µM (inactive) | > 100 µM (inactive) | > 100 µM (inactive) | > 100 µM (inactive) | > 100 µM (inactive) | > 100 µM (inactive) | > 100 µM (inactive) | > 100 µM (inactive) | > 100 µM (inactive) | > 100 µM (inactive) | > 100 µM (inactive) | > 100 µM (inactive) | > 100 µM (inactive) | > 100 µM (inactive) | > 100 µM (inactive) | > 100 µM (inactive) | > 100 µM (inactive) |
| CC(=O)c1cccc(Nc2nc3ccccc3c3occc23)c1 | 22 µM (inactive) | 46.1 µM (inactive) | 36.4 µM | 14 µM (inactive) | 9.64 µM (inactive) | – | 35.2 µM (inactive) | 33.3 µM (inactive) | 2.03 µM (inactive) | 16.7 µM (inactive) | 23 µM (inactive) | 16.2 µM (inactive) | 53.6 µM (inactive) | 20.4 µM (inactive) | 22.2 µM (inactive) | 20.2 µM (inactive) | 15 µM (inactive) | > 100 µM (inactive) | 46.2 µM (inactive) | – |
| COc1c(-c2nc3ccc(N4CCN(C)CC4)cc3[nH]2)cc(OC)c2[nH]c(COC(C)=O)nc12 | 98.4 µM (inactive) | – | > 100 µM | 67.1 µM (inactive) | > 100 µM (inactive) | > 100 µM (inactive) | 19.6 µM (inactive) | 37.8 µM (inactive) | > 100 µM (inactive) | 65.9 µM (inactive) | > 100 µM (inactive) | 29.8 µM (inactive) | > 100 µM (inactive) | 55.1 µM (inactive) | 94.8 µM (inactive) | 36 µM (inactive) | 71.4 µM (inactive) | 59.8 µM (inactive) | 30.8 µM (inactive) | 45.9 µM (inactive) |
| N=C(CCl)NC1CN2CCC1CC2 (configuration not stated) | 67.5 µM (inactive) | – | > 100 µM | > 100 µM (inactive) | > 100 µM (inactive) | > 100 µM (inactive) | > 100 µM (inactive) | > 100 µM (inactive) | > 100 µM (inactive) | > 100 µM (inactive) | > 100 µM (inactive) | 59 µM (inactive) | 75 µM (inactive) | > 100 µM (inactive) | 92.9 µM (inactive) | > 100 µM (inactive) | > 100 µM (inactive) | 18.4 µM (inactive) | 34.1 µM (inactive) | > 100 µM (inactive) |
